According to the supplement of paper PMC10307832:

How the values were obtained:
Assay in all cases: relative viability (nuclei count vs DMSO), 5 days (fraction); higher = more cells survive
Shikonin + Pictilisib = compound: CC(C)=CC[C@@H](O)C1=CC(=O)c2c(O)ccc(O)c2C1=O [Shikonin] + CS(=O)(=O)N1CCN(Cc2cc3nc(-c4cccc5[nH]ncc45)nc(N4CCOCC4)c3s2)CC1 [Pictilisib] (partner 1 µM)
Outline: (§1)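 Relative viability is defined as nuclei in treated wells over nuclei in vehicle wells. Duplicate plates were run and medians reported. Lung cancer cell lines in 1536-well plates were dosed by pin tool one day after seeding, with one drug or with a fixed anchor-drug dose plus five library-drug doses (not always all listed) in √10 steps, and nuclei were counted after 5 days.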

[1] = compound: CC(C)N(CCCNC(=O)Nc1ccc(C(C)(C)C)cc1)C[C@H]1O[C@@H](n2ccc3c(N)ncnc32)[C@H](O)[C@@H]1O + NC(=O)Nc1cc(-c2cccc(F)c2)sc1C(=O)N[C@H]1CCCNC1 [AZD7762] (partner 0.2 µM)
Outline: as §1

[2] = compound: CC(C)N(CCCNC(=O)Nc1ccc(C(C)(C)C)cc1)C[C@H]1O[C@@H](n2ccc3c(N)ncnc32)[C@H](O)[C@@H]1O + CC(=O)Nc1cccc(-n2c(=O)n(C3CC3)c(=O)c3c(Nc4ccc(I)cc4F)n(C)c(=O)c(C)c32)c1 [Trametinib] (partner 0.02 µM)
Outline: as §1

Shikonin + Decitabine = compound: CC(C)=CC[C@@H](O)C1=CC(=O)c2c(O)ccc(O)c2C1=O [Shikonin] + Nc1ncn([C@H]2C[C@H](O)[C@@H](CO)O2)c(=O)n1 [Decitabine] (partner 2 µM)
Outline: as §1

| Cell Line | relative viability (Shikonin + Pictilisib; first compound 0.01 µM) | relative viability (Shikonin + Pictilisib; first compound 0.1 µM) | relative viability (Shikonin + Pictilisib; first compound 0.3162 µM) | relative viability (Shikonin + Pictilisib; first compound 1 µM) | relative viability ([1]; first compound 0.08 µM) | relative viability ([1]; first compound 0.253 µM) | relative viability ([1]; first compound 2.53 µM) | relative viability ([1]; first compound 8 µM) | relative viability ([2]; first compound 0.08 µM) | relative viability ([2]; first compound 0.253 µM) | relative viability ([2]; first compound 2.53 µM) | relative viability ([2]; first compound 8 µM) | relative viability (Shikonin + Decitabine; first compound 0.01 µM) | relative viability (Shikonin + Decitabine; first compound 0.1 µM) | relative viability (Shikonin + Decitabine; first compound 0.3162 µM) | relative viability (Shikonin + Decitabine; first compound 1 µM) | relative viability ([1]; first compound 0.8 µM) | relative viability ([2]; first compound 0.8 µM) |
| --- | --- | --- | --- | --- | --- | --- | --- | --- | --- | --- | --- | --- | --- | --- | --- | --- | --- | --- |
| 201T | 0.621 | 0.754 | 0.669 | 0.796 | 0.6 | 0.554 | 0.56 | 0.622 | 0.719 | 0.692 | 0.733 | 0.695 | 0.847 | 0.919 | 0.879 | 0.867 | – | – |
| A549 | 0.746 | 0.569 | 0.644 | 0.488 | – | – | – | – | – | – | – | – | 0.223 | 0.281 | 0.239 | 0.193 | – | – |
| A-427 | 0.691 | 0.915 | 0.643 | 0.765 | 0.79 | 0.682 | 0.699 | 0.711 | 0.751 | 0.816 | 0.806 | 0.743 | 0.575 | 0.578 | 0.579 | 0.61 | 0.735 | 0.677 |
| ABC-1 | 0.718 | 0.776 | 0.538 | 0.407 | 0.933 | 0.954 | 1.02 | 0.729 | – | – | – | – | 1.33 | 1.28 | 1.21 | 1.02 | – | – |
| BEN | 0.642 | 0.596 | 0.682 | 0.612 | 0.736 | 0.746 | 0.598 | 0.795 | 1.01 | 0.92 | 1.26 | 1.08 | 0.658 | 0.787 | 0.707 | 0.767 | 0.716 | 0.96 |
| CAL-12T | 0.368 | 0.409 | 0.35 | 0.414 | 0.572 | 0.617 | 0.668 | 0.565 | 0.346 | 0.345 | 0.323 | 0.306 | – | – | – | – | 0.665 | 0.362 |
| COR-L23 | 1.09 | 0.831 | 0.889 | 0.741 | – | – | – | – | 0.664 | 0.374 | 0.67 | 0.519 | 0.382 | 0.516 | 0.399 | 0.398 | – | 0.631 |
| COR-L 105 | 0.428 | 0.358 | 0.438 | 0.336 | – | – | – | – | 0.492 | 0.402 | 0.465 | 0.537 | 0.64 | 0.703 | 0.625 | 0.477 | – | 0.496 |
| Calu-6 | 1.15 | 1.03 | 0.921 | 0.756 | – | – | – | – | – | – | – | – | – | – | – | – | – | – |
| ChaGo-K-1 | 0.677 | 1.16 | 0.699 | 1.27 | 0.881 | 0.936 | 0.863 | 0.79 | 0.91 | 0.875 | 0.876 | 0.843 | 0.521 | 0.529 | 0.513 | 0.567 | 0.858 | 0.876 |
| EBC-1 | 0.331 | 0.353 | 0.369 | 0.34 | – | – | – | – | – | – | – | – | – | – | – | – | – | – |
| EKVX | 0.46 | 0.451 | 0.496 | 0.448 | 0.7 | 0.716 | 0.767 | 0.621 | 0.392 | 0.339 | 0.359 | 0.327 | 0.295 | 0.367 | 0.312 | 0.584 | 0.702 | 0.376 |
| EMC-BAC-2 | 0.541 | 0.536 | 0.593 | 0.654 | 1.08 | 1.1 | 1.03 | 0.979 | 0.895 | 0.851 | 0.854 | 0.819 | 0.964 | 1.07 | 1.13 | 0.956 | 1.08 | 0.965 |
| EPLC-272H | 0.299 | 0.383 | 0.292 | 0.36 | 0.262 | 0.238 | 0.259 | 0.35 | 0.246 | 0.273 | 0.333 | 0.298 | 0.344 | 0.387 | 0.371 | 0.358 | 0.21 | 0.27 |
| H3255 | 0.487 | 0.477 | 0.495 | 0.427 | 0.922 | 0.864 | 0.823 | 0.678 | 0.492 | 0.593 | 0.587 | 0.49 | 0.606 | 0.658 | 0.663 | 0.503 | 0.827 | 0.483 |
| HARA | 0.226 | 0.527 | 0.477 | 0.43 | 0.344 | 0.244 | 0.655 | 0.299 | 0.736 | 0.412 | 0.511 | 0.508 | 0.516 | 0.674 | 0.691 | 0.591 | 0.334 | 0.54 |
| HCC-15 | 0.699 | 0.789 | 0.732 | 0.832 | 1.24 | 1.35 | 0.95 | 1.28 | 0.338 | 0.363 | 0.362 | 0.351 | 0.575 | 0.848 | 0.638 | 0.792 | – | 0.401 |
| HCC-44 | 0.663 | 0.835 | 0.564 | 0.728 | 1 | 1.1 | 1.04 | 0.929 | 1.11 | 1.09 | 1.11 | 1.18 | 0.953 | 0.928 | 1.1 | 0.979 | 0.897 | 0.936 |
